pIC50: −log10 of the molar value.

Assay [1] has as its target T1, binding of His-XIAP(BIR2)-avi fusion protein to GST-RIPK2 fusion protein (RIPK2/XIAP) (Homo sapiens, UniProt O43353).
T1 construct: made in house; host or cells: baculovirus infected Sf9 cells
As to the kind of experiment: RIPK2-XIAP binding competition PPI assay (TR-FRET). The settings on record: RIPK2/XIAP binding competition PPI assay; for Emax: Amax, read-out: PPI Amax bin; for pIC50: read-out: PPI IC50 bin. In short, it runs like this: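 Compounds (in DMSO, 100-fold stock) incubated 120 min at 23 °C with 1 nM GST-RIPK2 (aa 1-310) and 25 nM His-XIAP(BIR2 aa 152-231)-avi, plus anti-His-XL665 and anti-GST-Tb, in pH 7.5 Tris buffer. Read-out: 665/520 nm emission ratio. Normalized to no-inhibitor (0%) and 50 nM GSK583 (−100%); Amax binned A–D.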

Assay [2] addresses T2, GST-RIPK2 fusion protein (human RIPK2, amino acids 1-310) (Homo sapiens, UniProt O43353).
T2 construct: made in house; host or cells: baculovirus infected Sf9 cells
As to the kind of experiment: RIPK2 binding competition assay (TR-FRET, Tracer 199 displacement). The settings on record: 10 nM Tracer 199, 1 nM GST-RIPK2, read-out: RIPK2 IC50. Put shortly:
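IC50 derived from the TR-FRET emission ratio (665/620 nm, 337 nm excitation), normalized with no-inhibitor and no-enzyme controls. Incubation 45 min at 22 °C, pH 7.5 Tris buffer, with final 10 nM tracer, 1 nM Sf9-expressed GST-RIPK2 fragment (aa 1-310) and 0.5 nM Tb-labelled anti-GST.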
On the technique in general: Time-resolved FRET reads energy transfer from a long-lived donor to a nearby acceptor.

Assay [3] relates to NF-κB pathway (SEAP) in THP1-Dual cells. As to the kind of experiment: THP-1 Dual cell SEAP assay (L18-MDP stimulated). It counts as cell-based. The settings on record: Homo sapiens, THP1-Dual, read-out: NF-κB THP1 IC50 bin. In short, it runs like this:
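IC50 values derive from non-linear regression of % inhibition, calculated against DMSO/L18-MDP-treated wells after media-only subtraction. NF-κB SEAP activity was read at OD 620-655 nm (QUANTI-Blue, 2 h, 37 °C) from supernatants of THP1-Dual cells. Cells had been compound-treated 30 min before overnight (20-24 h) stimulation with 10 ng/mL final L18-MDP.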

T1 sequence (O43353 1-310 limits assumed): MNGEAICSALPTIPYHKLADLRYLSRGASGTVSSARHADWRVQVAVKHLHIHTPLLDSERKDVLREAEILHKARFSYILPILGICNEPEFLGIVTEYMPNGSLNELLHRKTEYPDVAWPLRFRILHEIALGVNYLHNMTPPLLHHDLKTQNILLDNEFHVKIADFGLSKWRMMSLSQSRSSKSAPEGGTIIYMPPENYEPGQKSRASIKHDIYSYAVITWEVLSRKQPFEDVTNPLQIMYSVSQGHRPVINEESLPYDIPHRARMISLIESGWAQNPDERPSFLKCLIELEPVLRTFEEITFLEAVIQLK
T2 sequence (O43353 1-310): as the sequence (O43353 1-310 limits assumed) above

As usually defined, the pIC50 is −log10 of the IC50, conventionally taken in molar units. For the molecule `COc1cc2ncc(-c3ccn4nccc4c3)n2cc1S(=O)(=O)C(C)(C)C` [Example 94, 6-(tert-butylsulfonyl)-7-methoxy-3-(pyrazolo[1,5-a]pyridin-5-yl)imidazo[1,2-a]pyridine], the Emax in assay [1] is less than 30%. The negative logarithm of the IC50 (pIC50) in assay [1] is less than 7.70; in assay [2], 7.70 to 8.60; in assay [3], 6.00 to 6.60.
As for `CC1(C)CNc2ncc(-c3cnc4cc(OCCO)c(S(=O)(=O)C(C)(C)C)cn34)cc21` [Example 230, 2-((6-(tert-butylsulfonyl)-3-(3,3-dimethyl-2,3-dihydro-1H-pyrrolo[2,3-b]pyridin-5-yl)imidazo[1,2-a]pyridin-7-yl)oxy)ethan-1-ol], in assay [1], the Emax is less than 30%. Moreover, the pIC50 in assay [1] was less than 7.70; in assay [2], less than 7.70; in assay [3] it was less than 6.00.
On to `COc1cc2ncc(-c3cc(F)c(N)nc3F)n2cc1S(=O)(=O)C(C)(C)c1nc(C)no1` [Example 64, 3,6-difluoro-5-(7-methoxy-6-((2-(3-methyl-1,2,4-oxadiazol-5-yl)propan-2-yl)sulfonyl)imidazo[1,2-a]pyridin-3-yl)pyridin-2-amine], for which the Emax in assay [1] is greater than 80%. Also, the pIC50 in assay [1] was less than 7.70; in assay [2], less than 7.70; in assay [3], less than 6.00.
On to `CC(C)(C)S(=O)(=O)c1cn2c(-c3cc4cc[nH]c4cc3F)cnc2cc1OCCO` [Example 217, 2-((6-(tert-butylsulfonyl)-3-(6-fluoro-1H-indol-5-yl)imidazo[1,2-a]pyridin-7-yl)oxy)ethan-1-ol], for which the Emax in assay [1] fell in the range of 55 to 80%. Also, the pIC50 in assay [1] was greater than 9.00; in assay [2], greater than 9.00; in assay [3] it was 6.60 to 7.30.
As to `COc1cc2ncc(-c3cc(F)c(N)nc3F)n2cc1S(=O)(=O)C(C)(C)CN1CCOCC1` [Example 168, 3,6-difluoro-5-(7-methoxy-6-((2-methyl-1-morpholinopropan-2-yl)sulfonyl)imidazo[1,2-a]pyridin-3-yl)pyridin-2-amine], the Emax in assay [1] was greater than 80%. For the same molecule, the pIC50 in assay [1] is 7.70 to 8.60; in assay [2], 7.70 to 8.60; in assay [3], 6.00 to 6.60.
`COc1cc2ncc(-c3cc(F)c(OC)c4[nH]c(C)nc34)n2cc1S(=O)(=O)C(C)(C)C` [Example 118, 4-(6-(tert-butylsulfonyl)-7-methoxyimidazo[1,2-a]pyridin-3-yl)-6-fluoro-7-methoxy-2-methyl-1H-benzo[d]imidazole]: in assay [1], the Emax lay in the range of 55 to 80%. Further, the pIC50 in assay [1] is greater than 9.00; in assay [2], 8.60 to 9.00; in assay [3] it was 6.60 to 7.30.
Consider `COc1cc2ncc(-c3cc4cc[nH]c4nc3F)n2cc1S(=O)(=O)C(C)(C)C` [Example 216, 6-(tert-butylsulfonyl)-3-(6-fluoro-1H-pyrrolo[2,3-b]pyridin-5-yl)-7-methoxyimidazo[1,2-a]pyridine], for which the Emax in assay [1] was greater than 80%. Also, the pIC50 in assay [1] was greater than 9.00; in assay [2] it was greater than 9.00; in assay [3], greater than 7.30.
As for `COc1cc2ncc(-c3cccc(NS(=O)(=O)C4CCC4)c3)n2cc1S(=O)(=O)C(C)(C)C` [Example 152, N-(3-(6-(tert-butylsulfonyl)-7-methoxyimidazo[1,2-a]pyridin-3-yl)phenyl)cyclobutanesulfonamide], the Emax in assay [1] is greater than 80%. Further, the pIC50 is 7.70 to 8.60 in assay [1], 7.70 to 8.60 in assay [2] and 6.00 to 6.60 in assay [3].
Consider `COc1cc2ncc(-c3cc(F)c(N)nc3F)n2cc1S(=O)(=O)C1(C)CCNCC1` [Example 71, 3,6-difluoro-5-(7-methoxy-6-((4-methylpiperidin-4-yl)sulfonyl)imidazo[1,2-a]pyridin-3-yl)pyridin-2-amine], for which, in assay [1], the Emax is greater than 80%. In addition, the pIC50 in assay [1] was 7.70 to 8.60; in assay [2], 7.70 to 8.60; in assay [3], less than 6.00.
As to `Cn1ccc(-c2cc3ncc(-c4cc(F)c(N)nc4F)n3cc2S(=O)(=O)C(C)(C)C)n1` [Example 27, 5-(6-(tert-butylsulfonyl)-7-(1-methyl-1H-pyrazol-3-yl)imidazo[1,2-a]pyridin-3-yl)-3,6-difluoropyridin-2-amine], in assay [1], the Emax is greater than 80%. Also, the values for the pIC50 in assay [1], in assay [2] and in assay [3] were less than 7.70, less than 7.70 and less than 6.00, respectively.
`COc1cc2ncc(-c3cc(F)c(N)nc3F)n2cc1S(=O)(=O)C(C)(C)Cn1cccn1` [Example 65, 3,6-difluoro-5-(7-methoxy-6-((2-methyl-1-(1H-pyrazol-1-yl)propan-2-yl)sulfonyl)imidazo[1,2-a]pyridin-3-yl)pyridin-2-amine]: in assay [1], the Emax was greater than 80%. The negative logarithm of the IC50 (pIC50) was less than 7.70 in assay [1], less than 7.70 in assay [2] and less than 6.00 in assay [3].
For `C=CS(=O)(=O)Nc1cc(-c2cnc3cc(OC)c(S(=O)(=O)C(C)(C)C)cn23)cc(OC)c1OC` [Example 144, N-(5-(6-(tert-butylsulfonyl)-7-methoxyimidazo[1,2-a]pyridin-3-yl)-2,3-dimethoxyphenyl)ethenesulfonamide], the Emax in assay [1] was greater than 80%. The pIC50 is greater than 9.00 in assay [1], 8.60 to 9.00 in assay [2] and greater than 7.30 in assay [3].
As to `COc1cc2ncc(-c3cc(F)c(OC)c(NC(=O)Cc4ccn(C)n4)c3)n2cc1S(=O)(=O)C(C)(C)C` [Example 298, N-(5-(6-(tert-butylsulfonyl)-7-methoxyimidazo[1,2-a]pyridin-3-yl)-3-fluoro-2-methoxyphenyl)-2-(1-methyl-1H-pyrazol-3-yl)acetamide], the Emax in assay [1] lay within 55 to 80%. Moreover, the figures for the pIC50 in assay [1], in assay [2] and in assay [3] were 7.70 to 8.60, 7.70 to 8.60 and 6.00 to 6.60, respectively.
With `COc1cc2ncc(-c3cc(F)c(N)nc3F)n2cc1S(=O)(=O)c1ccnn1C` [Example 77, 3,6-difluoro-5-(7-methoxy-6-((1-methyl-1H-pyrazol-5-yl)sulfonyl)imidazo[1,2-a]pyridin-3-yl)pyridin-2-amine], in assay [1], the Emax was greater than 80%. Moreover, the pIC50 in assay [1] is less than 7.70; in assay [2], less than 7.70; in assay [3], less than 6.00.
As for `COc1cc2ncc(-c3ccc4c(N)nccc4c3)n2cc1S(=O)(=O)C(C)(C)C` [Example 90, 6-(6-(tert-butylsulfonyl)-7-methoxyimidazo[1,2-a]pyridin-3-yl)isoquinolin-1-amine], the Emax in assay [1] is less than 30%. Moreover, the figures for the pIC50 in assay [1], in assay [2] and in assay [3] were less than 7.70, 7.70 to 8.60 and 6.00 to 6.60, respectively.
Regarding `COc1cc2ncc(-c3cnc4c(c3)OCC4O)n2cc1S(=O)(=O)C(C)(C)C` (stereo not drawn) [Example 87, 6-(6-(tert-butylsulfonyl)-7-methoxyimidazo[1,2-a]pyridin-3-yl)-2,3-dihydrofuro[3,2-b]pyridin-3-ol], the Emax in assay [1] is 30 to 55%. In addition, the results for the pIC50 in assay [1], in assay [2] and in assay [3] were less than 7.70, less than 7.70 and less than 6.00, respectively.
Regarding `CC(C)(C)S(=O)(=O)c1cc2c(-c3cc(F)c(N)nc3F)cnn2cc1OCCOP(=O)(O)O` [Example 188, 2-((3-(6-amino-2,5-difluoropyridin-3-yl)-5-(tert-butylsulfonyl)pyrazolo[1,5-a]pyridin-6-yl)oxy)ethyl dihydrogen phosphate], the Emax in assay [1] is greater than 80%. Further, the negative-log IC50 (pIC50) in assay [1] is less than 7.70; in assay [2], less than 7.70; in assay [3], less than 6.00.
For `COc1cc2ncc(-c3cc(F)c(N)nc3F)n2cc1P1(=O)CCN(C)CC1` [Example 79, 4-(3-(6-amino-2,5-difluoropyridin-3-yl)-7-methoxyimidazo[1,2-a]pyridin-6-yl)-1-methyl-1,4-azaphosphinane 4-oxide], the Emax in assay [1] was greater than 80%. Besides, the values for the pIC50 in assay [1], in assay [2] and in assay [3] were less than 7.70, less than 7.70 and less than 6.00, respectively.
In the case of `COc1cc2ncc(-c3ccc4nc(N)sc4c3)n2cc1S(=O)(=O)C(C)(C)C` [Example 95, 6-(6-(tert-butylsulfonyl)-7-methoxyimidazo[1,2-a]pyridin-3-yl)benzo[d]thiazol-2-amine], the Emax in assay [1] is less than 30%. The pIC50 is less than 7.70 in assay [1], 7.70 to 8.60 in assay [2] and less than 6.00 in assay [3].
On to `CC(C)(C)S(=O)(=O)c1cn2c(-c3cc(F)c(N)nc3F)cnc2cc1OC[C@H]1C[C@@H](O)C1` [Example 196, (1s,3s)-3-(((3-(6-amino-2,5-difluoropyridin-3-yl)-6-(tert-butylsulfonyl)imidazo [1,2-a]pyridin-7-yl)oxy)methyl) cyclobutan-1-ol], for which the Emax in assay [1] was greater than 80%. The pIC50 in assay [1] was 8.60 to 9.00; in assay [2] it was 8.60 to 9.00; in assay [3], 6.60 to 7.30.
With `COc1cc2ncc(-c3cc(F)c(N)nc3F)n2cc1C1(O)CCOCC1` [Example 75, 4-(3-(6-amino-2,5-difluoropyridin-3-yl)-7-methoxyimidazo[1,2-a]pyridin-6-yl)tetrahydro-2H-pyran-4-ol], the Emax in assay [1] is greater than 80%. In addition, the results for the pIC50 in assay [1], in assay [2] and in assay [3] were less than 7.70, less than 7.70 and less than 6.00, respectively.

Source of the values: US20260137706A1, “METHODS OF TREATING INFLAMMATORY DISEASES” (INTERLINE THERAPEUTICS, INC., priority 2023, published 2026).
